Test results from the supplement of paper PMC10627819.

What was measured:
B. subtilis 168 [1] = experiment: fitness (endpoint OD595 vs no drug) (fraction); higher = more growth
How it was run: (§1)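 At 37 °C, bacteria in TSB, LB Lennox or CY were grown in 384-well plates from a starting OD595 of 0.01. OD595 was measured every 30 min for 14 h, with the first reading used as background. Fitness is the optical density at the switch to stationary phase as a fraction of the robust mean of no-drug control wells, capped at 1.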

S. aureus DSM 20231 [2] = experiment: as above
How it was run: as §1

S. aureus Newman [3] = experiment: as above
How it was run: as §1

S. pneumoniae D39V [4] = experiment: as above
How it was run: as §1

B. subtilis 168 [5] = experiment: Bliss interaction score (quartile over a dose matrix) (fitness difference); higher = more antagonism (negative = synergy)
How it was run: (§2)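 Quartiles summarise the Bliss score over technical, biological and donor/recipient replicates, where the score is observed minus expected fitness under a product model. Expected fitness uses single-drug values inferred from combination data. Fitness is OD595 at entry into stationary phase over the plate's robust no-drug mean, capped at 1.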

S. aureus DSM 20231 [6] = experiment: as above
How it was run: as §2

S. aureus Newman [7] = experiment: as above
How it was run: as §2

S. pneumoniae D39V [8] = experiment: as above
How it was run: as §2
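For Bliss interaction score (quartile over a dose matrix) in this document: first quartile when negative (synergy) and third quartile when positive (antagonism).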

CCC[C@@H]1C[C@@H](C(=O)N[C@@H]([C@H]2O[C@H](SC)[C@H](O)[C@@H](O)[C@H]2O)[C@H](C)Cl)N(C)C1 [Clindamycin] + CN1C2=CC=CC=C2N=C3C1=CC=CC3=O [Pyocyanin]
fitness, one replicate
Conditions | first compound 0.0039 µg/mL | first compound 0.0078 µg/mL | first compound 0.015 µg/mL | first compound 0.0156 µg/mL | first compound 0.03 µg/mL | first compound 0.06 µg/mL
B. subtilis 168 [1], partner 1.25 µg/mL | 0.892 | 0.424 | – | 0.863 | – | –
B. subtilis 168 [1], partner 2.5 µg/mL | 0.922 | 0.451 | – | 0.802 | – | –
B. subtilis 168 [1], partner 5 µg/mL | 0.821 | 0.495 | – | 0.725 | – | –
S. pneumoniae D39V [4], partner 0.325 µg/mL | – | – | 0.89 | – | 0.873 | 0.554
S. pneumoniae D39V [4], partner 0.65 µg/mL | – | – | 0.963 | – | 0.881 | 0.689

Conditions | fitness
B. subtilis 168 [1], first compound 0.0625 µg/mL, partner 1.25 µg/mL | 0.562
B. subtilis 168 [1], first compound 0.0625 µg/mL, partner 2.5 µg/mL | 0.576
B. subtilis 168 [1], first compound 0.0625 µg/mL, partner 5 µg/mL | 0.517
B. subtilis 168 [1], first compound 0.125 µg/mL, partner 1.25 µg/mL | 0.388
B. subtilis 168 [1], first compound 0.125 µg/mL, partner 2.5 µg/mL | 0.389
B. subtilis 168 [1], first compound 0.125 µg/mL, partner 5 µg/mL | 0.358
B. subtilis 168 [1], first compound 0.25 µg/mL, partner 1.25 µg/mL | 0.34
B. subtilis 168 [1], first compound 0.25 µg/mL, partner 2.5 µg/mL | 0.319
B. subtilis 168 [1], first compound 0.25 µg/mL, partner 5 µg/mL | 0.314
S. aureus DSM 20231 [2], first compound 0.0625 µg/mL, partner 5 µg/mL | 0.0689
S. aureus DSM 20231 [2], first compound 0.125 µg/mL, partner 1.25 µg/mL | 0.0414
S. aureus DSM 20231 [2], first compound 0.125 µg/mL, partner 2.5 µg/mL | 0.0387
S. aureus DSM 20231 [2], first compound 0.125 µg/mL, partner 5 µg/mL | 0.0705
S. aureus Newman [3], first compound 0.0312 µg/mL, partner 1.25 µg/mL | 0.602
S. aureus Newman [3], first compound 0.0312 µg/mL, partner 2.5 µg/mL | 0.424
S. aureus Newman [3], first compound 0.0312 µg/mL, partner 5 µg/mL | 0.155
S. aureus Newman [3], first compound 0.0625 µg/mL, partner 2.5 µg/mL | 0.179
S. aureus Newman [3], first compound 0.0625 µg/mL, partner 5 µg/mL | 0.0835
S. aureus Newman [3], first compound 0.125 µg/mL, partner 1.25 µg/mL | 0.0658
S. aureus Newman [3], first compound 0.125 µg/mL, partner 2.5 µg/mL | 0.0591
S. aureus Newman [3], first compound 0.125 µg/mL, partner 5 µg/mL | 0.0732
S. pneumoniae D39V [4], first compound 0.0125 µg/mL, partner 0.325 µg/mL | 0.775
S. pneumoniae D39V [4], first compound 0.0125 µg/mL, partner 0.65 µg/mL | 0.742
S. pneumoniae D39V [4], first compound 0.0125 µg/mL, partner 1.3 µg/mL | 0.564
S. pneumoniae D39V [4], first compound 0.025 µg/mL, partner 0.325 µg/mL | 0.49
S. pneumoniae D39V [4], first compound 0.025 µg/mL, partner 0.65 µg/mL | 0.458
S. pneumoniae D39V [4], first compound 0.025 µg/mL, partner 1.3 µg/mL | 0.333
S. pneumoniae D39V [4], first compound 0.05 µg/mL, partner 0.325 µg/mL | 0.192
S. pneumoniae D39V [4], first compound 0.05 µg/mL, partner 0.65 µg/mL | 0.147
S. pneumoniae D39V [4], first compound 0.05 µg/mL, partner 1.3 µg/mL | 0.0814

Conditions | Bliss interaction score
B. subtilis 168 [5] | 0.0629
S. aureus DSM 20231 [6] | 0.025
S. aureus Newman [7] | -0.141
S. pneumoniae D39V [8] | -0.0665

COc1c(N2C[C@@H]3CCCN[C@@H]3C2)c(F)cc2c(=O)c(C(=O)O)cn(C3CC3)c12 [Moxifloxacin] + CN1C2=CC=CC=C2N=C3C1=CC=CC3=O [Pyocyanin]
fitness
Conditions | partner 0.325 µg/mL | partner 0.65 µg/mL | partner 1.25 µg/mL | partner 1.3 µg/mL | partner 2.5 µg/mL | partner 5 µg/mL
B. subtilis 168 [1], first compound 0.0312 µg/mL | – | – | 0.0609 | – | 0.0599 | 0.0529
B. subtilis 168 [1], first compound 0.0625 µg/mL | – | – | 0.0538 | – | 0.0598 | 0.057
B. subtilis 168 [1], first compound 0.125 µg/mL | – | – | 0.0466 | – | 0.047 | 0.0468
B. subtilis 168 [1], first compound 2 µg/mL | – | – | 0.0183 | – | 0.0257 | 0.0378
B. subtilis 168 [1], first compound 4 µg/mL | – | – | 0.0241 | – | 0.0221 | 0.0304
B. subtilis 168 [1], first compound 8 µg/mL | – | – | 0.012 | – | 0.0127 | 0.0179
S. aureus DSM 20231 [2], first compound 0.0075 µg/mL | – | – | 0.836 | – | 0.755 | 0.665
S. aureus DSM 20231 [2], first compound 0.015 µg/mL | – | – | 0.743 | – | 0.711 | 0.569
S. aureus DSM 20231 [2], first compound 0.03 µg/mL | – | – | 0.678 | – | 0.706 | 0.567
S. aureus Newman [3], first compound 0.0075 µg/mL | – | – | 0.679 | – | 0.605 | 0.372
S. aureus Newman [3], first compound 0.015 µg/mL | – | – | 0.51 | – | 0.434 | 0.221
S. aureus Newman [3], first compound 0.03 µg/mL | – | – | 0.157 | – | 0.138 | 0.0727
S. pneumoniae D39V [4], first compound 0.005 µg/mL | ≥ 1 | 0.988 | – | 0.797 | – | –
S. pneumoniae D39V [4], first compound 0.01 µg/mL | ≥ 1 | 0.98 | – | 0.828 | – | –
S. pneumoniae D39V [4], first compound 0.02 µg/mL | ≥ 1 | 0.959 | – | 0.788 | – | –

one replicate
Conditions | fitness
S. aureus DSM 20231 [2], first compound 0.06 µg/mL, partner 1.25 µg/mL | 0.671
S. aureus DSM 20231 [2], first compound 0.06 µg/mL, partner 2.5 µg/mL | 0.658
S. aureus DSM 20231 [2], first compound 0.06 µg/mL, partner 5 µg/mL | 0.651
S. aureus DSM 20231 [2], first compound 0.12 µg/mL, partner 1.25 µg/mL | 0.493
S. aureus DSM 20231 [2], first compound 0.12 µg/mL, partner 2.5 µg/mL | 0.514
S. aureus DSM 20231 [2], first compound 0.12 µg/mL, partner 5 µg/mL | 0.47
S. pneumoniae D39V [4], first compound 0.0037 µg/mL, partner 0.325 µg/mL | 0.925
S. pneumoniae D39V [4], first compound 0.0037 µg/mL, partner 0.65 µg/mL | 0.871
S. pneumoniae D39V [4], first compound 0.0075 µg/mL, partner 0.325 µg/mL | 0.948
S. pneumoniae D39V [4], first compound 0.0075 µg/mL, partner 0.65 µg/mL | 0.883
S. pneumoniae D39V [4], first compound 0.015 µg/mL, partner 0.325 µg/mL | 0.911
S. pneumoniae D39V [4], first compound 0.015 µg/mL, partner 0.65 µg/mL | 0.91

Conditions | Bliss interaction score
B. subtilis 168 [5] | -0.0123
S. aureus DSM 20231 [6] | 0.0656
S. aureus Newman [7] | -0.0614
S. pneumoniae D39V [8] | 0.0702
